Laboratory results reported in PubChem BioAssay (NCI).
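Assay format: 96-well plates, 48-hour exposure. GI50 is the concentration that inhibits growth by half. TGI: concentration producing complete growth inhibition.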

What was measured:
Test in all cases: NCI tumour cell line growth inhibition, 48 h
[1] = tested on: SNB-75 CNS
[2] = tested on: HCC-2998 colon
[3] = tested on: SW-620 colon
[4] = tested on: BT-549 breast
[5] = tested on: IGROV1 ovarian
[6] = tested on: HCT-15 colon
[7] = tested on: NCI/ADR-RES ovarian
[8] = tested on: SN12C renal
[9] = tested on: MCF7 breast
[10] = tested on: UACC-257 melanoma
[11] = tested on: SNB-19 CNS
[12] = tested on: PC-3 prostate
[13] = tested on: SF-268 CNS
[14] = tested on: SK-MEL-5 melanoma
[15] = tested on: SK-MEL-2 melanoma
[16] = tested on: NCI-H460 lung
[17] = tested on: RPMI-8226 leukemia
[18] = tested on: HOP-62 NSCLC
[19] = tested on: CCRF-CEM leukemia
[20] = tested on: SK-MEL-28 melanoma
[21] = tested on: HL-60(TB) leukemia
[22] = tested on: TK-10 renal
[23] = tested on: LOX IMVI melanoma
[24] = tested on: A549 NSCLC
[25] = tested on: A498 renal
[26] = tested on: NCI-H522 lung
[27] = tested on: SR leukemia
[28] = tested on: MALME-3M melanoma
[29] = tested on: SF-539 CNS
[30] = tested on: NCI-H23 lung
[31] = tested on: HOP-92 NSCLC
[32] = tested on: MDA-MB-231 breast
[33] = tested on: RXF 393 renal
[34] = tested on: OVCAR-3 ovarian
[35] = tested on: OVCAR-4 ovarian
[36] = tested on: ACHN renal
[37] = tested on: T-47D breast
[38] = tested on: HCT-116 colon
[39] = tested on: SF-295 CNS
[40] = tested on: EKVX NSCLC
[41] = tested on: K-562 leukemia
[42] = tested on: MDA-MB-435
[43] = tested on: OVCAR-8 ovarian
[44] = tested on: NCI-H226 lung
[45] = tested on: SK-OV-3 ovarian
[46] = tested on: COLO 205 colon
[47] = tested on: U251 CNS
[48] = tested on: UACC-62 melanoma
[49] = tested on: M14 melanoma
[50] = tested on: DU-145 prostate
[51] = tested on: UO-31 renal
[52] = tested on: HT29 colon
[53] = tested on: OVCAR-5 ovarian
[54] = tested on: MOLT-4 leukemia
[55] = tested on: KM12 colon
[56] = tested on: CAKI-1 renal
[57] = tested on: HS 578T breast
[58] = tested on: 786-0 renal

SMILES: CN1CCN(c2nc(-c3cnc4ccccc4n3)cc3ccccc23)CC1
- GI50 [1]: 16.7 µM
- TGI [1]: > 88.6 µM
- GI50 [2]: 2.17 µM
- TGI [2]: 5.11 µM
- GI50 [3]: 2.22 µM
- TGI [3]: 5.11 µM
- GI50 [4]: 39.6 µM
- TGI [4]: > 79.3 µM
- GI50 [5]: 7.96 µM
- TGI [5]: > 55.2 µM
- GI50 [6]: 2.95 µM
- TGI [6]: 9.19 µM
- GI50 [7]: 21.5 µM
- TGI [7]: > 100 µM
- GI50 [8]: 12.6 µM
- TGI [8]: > 48.6 µM
- GI50 [9]: 6.61 µM
- TGI [9]: 20.7 µM
- GI50 [10]: 1.89 µM
- TGI [10]: 3.91 µM
- GI50 [11]: > 53.7 µM
- TGI [11]: > 100 µM
- GI50 [12]: 10.3 µM
- TGI [12]: > 100 µM
- GI50 [13]: > 46.8 µM
- TGI [13]: > 100 µM
- GI50 [14]: 7.39 µM
- TGI [14]: > 50.4 µM
- GI50 [15]: 30.8 µM
- TGI [15]: > 54.7 µM
- GI50 [16]: 3.67 µM
- TGI [16]: 13.1 µM
- GI50 [17]: 3.04 µM
- TGI [17]: 13 µM
- GI50 [18]: > 38.2 µM
- TGI [18]: > 58.9 µM
- GI50 [19]: 9.44 µM
- TGI [19]: > 90.3 µM
- GI50 [20]: 2.29 µM
- TGI [20]: 5.27 µM
- GI50 [21]: 4.21 µM
- TGI [21]: 9.46 µM
- GI50 [22]: > 41.8 µM
- TGI [22]: > 62.7 µM
- GI50 [23]: 2.82 µM
- TGI [23]: 7.66 µM
- GI50 [24]: > 32.1 µM
- TGI [24]: > 100 µM
- GI50 [25]: > 68.4 µM
- TGI [25]: > 100 µM
- GI50 [26]: 18.1 µM
- TGI [26]: > 56.8 µM
- GI50 [27]: 2.02 µM
- TGI [27]: 6.04 µM
- GI50 [28]: 4.45 µM
- TGI [28]: 9.15 µM
- GI50 [29]: 8 µM
- TGI [29]: > 51.2 µM
- GI50 [30]: 30.7 µM
- TGI [30]: > 100 µM
- GI50 [31]: 2.76 µM
- TGI [31]: > 69.7 µM
- GI50 [32]: 6.47 µM
- TGI [32]: > 50.3 µM
- GI50 [33]: 4.97 µM
- TGI [33]: 15.1 µM
- GI50 [34]: 18.8 µM
- TGI [34]: > 100 µM
- GI50 [35]: > 43.8 µM
- TGI [35]: > 91.1 µM
- GI50 [36]: 9.5 µM
- TGI [36]: > 66.3 µM
- GI50 [37]: 12.4 µM
- TGI [37]: 31.2 µM
- GI50 [38]: 3.51 µM
- TGI [38]: 8.19 µM
- GI50 [39]: 7.88 µM
- TGI [39]: 20.3 µM
- GI50 [40]: > 56.8 µM
- TGI [40]: > 100 µM
- GI50 [41]: 2.3 µM
- TGI [41]: 6.34 µM
- GI50 [42]: 3.53 µM
- TGI [42]: 12.7 µM
- GI50 [43]: 10.3 µM
- TGI [43]: > 100 µM
- GI50 [44]: 35.8 µM
- TGI [44]: > 100 µM
- GI50 [45]: > 44.8 µM
- TGI [45]: > 72 µM
- GI50 [46]: 1.84 µM
- TGI [46]: 3.67 µM
- GI50 [47]: 8 µM
- TGI [47]: > 48.4 µM
- GI50 [48]: 2.84 µM
- TGI [48]: 8.23 µM
- GI50 [49]: 1.88 µM
- TGI [49]: 3.65 µM
- GI50 [50]: > 52.1 µM
- TGI [50]: > 100 µM
- GI50 [51]: 3.67 µM
- TGI [51]: > 49.3 µM
- GI50 [52]: 3.39 µM
- TGI [52]: 11.7 µM
- GI50 [53]: > 36 µM
- TGI [53]: > 72.9 µM
- GI50 [54]: 4.7 µM
- TGI [54]: > 48.9 µM
- GI50 [55]: > 64.6 µM
- TGI [55]: > 100 µM
- GI50 [56]: 9.79 µM
- TGI [56]: > 100 µM
- GI50 [57]: 15.1 µM
- TGI [57]: > 67.6 µM
- GI50 [58]: 10.9 µM
- TGI [58]: 24 µM
